Ends that are not written are not given here.
Legend:
Hs695T cells = test: Peptide loading of Hs695T cells with PRAME peptide isotopologues; absolute copy numbers by AbsQuant (immunoprecipitation and LC/MS); type: cell-based; details: peptide-loaded Hs695T cells; 1 nM is ~0.001 μg/mL
Method: (§1) In order to translate detected relative ion intensities into an absolute measure, isotopologue-specific external calibration curves were acquired in two technical replicates. Therefore, a total of seven different isotopologues (Table 2; reconstituted as described above) were mixed to a final concentration of 20 pmol μL^−1. This stock was subsequently further titrated in 5% formic acid prior to LC/MS analysis. The internal standard PRAME peptide_L3L6 was added at a constant amount of 100 fmol per LC/MS injection. Samples were separated by reversed-phase chromatography (nanoAcquity UPLC, Waters, Milford, Mass.) using ACQUITY UPLC BEH C18 columns (75 μm×250 mm, Waters, Milford, Mass.) and a gradient ranging from 1 to 34.5% ACN over the course of 35 min. […]
(§2) The functional analysis of PRAME-loaded T98G cells was assessed in a co-culture setup. […]
(§3) In brief, 2.5×10^7 T98G (or 2×10^7 Hs695T) cells were incubated in 40 ml DMEM+10% FCS supplemented with the respective concentration of peptide for 2 h at 37° C., 5% C02. […] By adding specific substrate, the amount of LDH present in the supernatant was determined by measuring the colorimetric signal in a microplate reader. […]

T98G cells = test: Peptide loading of T98G cells with PRAME peptide isotopologues; absolute copy numbers by AbsQuant (immunoprecipitation and LC/MS); type: cell-based; details: peptide-loaded T98G cells; 1 nM is ~0.001 μg/mL
Method: as §1, §2, §3

T2 cells = test: Peptide loading of T2 cells with KLK3 peptide isotopologues; absolute pMHC copy numbers by BB7.2 immunoprecipitation and LC/MS; type: cell-based, human; details: T2 cells loaded at 0.1 μg/mL (~81 nM) peptide, 2 h incubation
Method: In order to translate detected relative ion intensities into an absolute measure, isotopologue-specific external calibration curves were acquired in two technical replicates. Therefore, a total of six different isotopologues (Table 1; reconstituted as described above) were mixed to a final concentration of 20 pmol μL^−1. This stock was subsequently further titrated in 5% formic acid prior to LC/MS analysis. The internal standard KLK3 peptide_L2P5 was added at a constant amount of 5 fmol per LC/MS injection. Samples were separated by reversed-phase chromatography (nanoAcquity UPLC, Waters, Milford, Mass.) using ACQUITY UPLC BEH C18 columns (75 μm×250 mm, Waters, Milford, Mass.) and a gradient ranging from 1 to 34.5% ACN over the course of 35 min. Mass spectrometry was performed on an online coupled Orbitrap Fusion Tribrid mass spectrometer (Thermo Fisher Scientific, Waltham, Mass.) in scheduled parallel reaction monitoring (sPRM) mode following collisional-induced dissociation (CID) of selected precursor ions. Subsequent peak boundary integration was performed in Skyline (MacLean et al., 2010).
The T2 cell line was obtained from DSMZ (ACC 598, lot #2). Cells were cultured in RPMI-1640 medium (Gibco, #A1049101) supplemented with 10% heat-inactivated FBS (Gibco, #10270106) in absence of antibiotics, at 37° C. in a humidified atmosphere containing 5% C02. […]

Row | Substance | loading concentration from which copy numbers are detectable (Hs695T cells) [nM] | loading concentration from which copy numbers are detectable (T98G cells) [nM] | absolute peptide abundance (T2 cells)
1 | SLLQHLIGL (not fully specified; listed as Homo sapiens) [PRAME peptide, PRAME-derived MHC-restricted peptide, loaded as isotopologues] | ≥ 1 | ≥ 1 | –
2 | SL*F*HPEDTGQV* [KLK3 peptide L2F3V 11] | – | – | ~10,000 copies per cell

Reference: patent publication US20230024554A1, “METHOD OF CHARACTERIZING THE BINDING CHARACTERISTICS BETWEEN A PEPTIDE OF INTEREST AND MHC MOLECULES” (Immatics Biotechnologies GmbH, priority 2021, published 2023)
